This note sets out measurements from patent US11970494B2, “6-heteroaryloxy benzimidazoles and azabenzimidazoles as JAK2 inhibitors” (Ajax Therapeutics, Inc., priority 2021, dated 2024).

Molecules are shown by their SMILES. In brackets after ≈: the same amount, converted by molar mass.

One data set concerns the target T1, JAK1 (Homo sapiens, UniProt P23458).
T1 construct: made in house; host or cells: T7 phage in BL21-derived E. coli or HEK-293 cells
As to the kind of experiment: JAK Family Selectivity Assay: JAK1 vs JAK2 binding affinity. To be noted: Kd JAK1 over Kd JAK2. The protocol:
(§1) Provided compounds are evaluated for selectivity by comparing their JAK2 binding affinity (Kd) in the above JAK2 Binding Assay with their binding affinity (Kd) for one or more other kinases. Binding affinity for other kinases is determined as follows: Kinase-tagged T7 phage strains are prepared in an E. coli host derived from the BL21 strain. E. coli are grown to log-phase and infected with T7 phage and incubated with shaking at 32° C. until lysis. The lysates are centrifuged and filtered to remove cell debris. The remaining kinases are produced in HEK-293 cells and subsequently tagged with DNA for qPCR detection. Streptavidin-coated magnetic beads are treated with biotinylated small molecule ligands for 30 minutes at room temperature to generate affinity resins for kinase assays. The liganded beads are blocked with excess biotin and washed with blocking buffer (SeaBlock (Pierce), 1% BSA, 0.05% Tween 20, 1 mM DTT) to remove unbound ligand and to reduce non-specific binding. Binding reactions are assembled by combining kinases, liganded affinity beads, and test compounds in 1× binding buffer (20% SeaBlock, 0.17×PBS, 0.05% Tween 20, 6 mM DTT). Test compounds are prepared as 111× stocks in 100% DMSO. Kds are determined using an 11-point 3-fold compound dilution series with three DMSO control points. All compounds for Kd measurements are distributed by acoustic transfer (non-contact dispensing) in 100% DMSO. The compounds are then diluted directly into the assays such that the final concentration of DMSO is 0.9%. All reactions are performed in polypropylene 384-well plate. Each has a final volume of 0.02 ml. The assay plates are incubated at room temperature with shaking for 1 hour and the affinity beads are washed with wash buffer (1×PBS, 0.05% Tween 20). The beads are then re-suspended in elution buffer (1× PBS, 0.05% Tween 20, 0.5 μM non-biotinylated affinity ligand) and incubated at room temperature with shaking for 30 minutes. The kinase concentration in the eluates is measured by qPCR. […] In some embodiments, provided compounds may be JAK2-selective over one or more of the following kinases: JAK1, JAK3, and Tyk2.

Data set [1] deals with T2, JAK2 (JH1 domain-catalytic, Y1007F,Y1008F) kinase (Homo sapiens, UniProt O60674, Y1007F/Y1008F).
T2 construct: made in house; host or cells: transiently transfected HEK293 cells
T2 sequence (O60674 849-1124 Y1007F/Y1008F limits assumed): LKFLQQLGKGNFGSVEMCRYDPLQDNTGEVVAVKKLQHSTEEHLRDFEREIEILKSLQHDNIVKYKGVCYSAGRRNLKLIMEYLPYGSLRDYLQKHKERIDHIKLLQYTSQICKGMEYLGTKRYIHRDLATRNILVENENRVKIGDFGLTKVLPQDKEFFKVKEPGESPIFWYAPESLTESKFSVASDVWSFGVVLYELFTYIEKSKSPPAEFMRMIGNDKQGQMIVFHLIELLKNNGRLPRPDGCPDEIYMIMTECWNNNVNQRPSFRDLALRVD
The data set can be described thus: JAK2 Binding Assay (JAK2 JH1 Domain Binding Assay). The settings on record: JAK2 JH1 domain binding, qPCR detection; read-out: JAK2 Kd.

A short description of another data set: Kinetic Solubility Assay. It counts as physicochemical. The settings on record: aqueous buffer, kinetic from dmso stock, kinetic solubility in PBS (pH 4.0 and pH 7.4 in method; pH of table values not stated), RT. Here is the method:
Stock solutions of test compounds are prepared in DMSO at the concentration of 10 mM, and a stock solution of control compound is prepared in DMSO at the concentration of 30 mM. Diclofenac is used as positive control in the assay. 30 μL stock solution of each compound is placed into their a 96-well rack, followed by adding 970 μL of PBS at pH 4.0 and pH 7.4 into each vial of the cap-less solubility sample plate. This study is performed in duplicate. One stir stick is added to each vial and then vials are sealed using a molded PTDE/SIL 96-Well Plate Cover. The solubility sample plate is transferred to the Thermomixer comfort plate shaker and incubated at RT for 2 hours with shaking at 1100 rpm. After 2 hours incubation, stir sticks are removed using a big magnet and all samples from the solubility sample plate are transferred into the filter plate. All the samples are filtered by vacuum manifold. The filtered samples are diluted with methanol. Samples are analyzed by LC-MS/MS and quantified against a standard of known concentration in DMSO using LC coupled with Mass spectral peak identification and quantitation. The solubility values of the test compounds are calculated as follows, wherein INJ VOL is injection volume, DF is dilution factor, and STD is standard: […]

The next data set addresses T3, JAK3 (Homo sapiens, UniProt P52333).
T3 construct: made in house; host or cells: T7 phage in BL21-derived E. coli or HEK-293 cells
T3 sequence (P52333 1-1124): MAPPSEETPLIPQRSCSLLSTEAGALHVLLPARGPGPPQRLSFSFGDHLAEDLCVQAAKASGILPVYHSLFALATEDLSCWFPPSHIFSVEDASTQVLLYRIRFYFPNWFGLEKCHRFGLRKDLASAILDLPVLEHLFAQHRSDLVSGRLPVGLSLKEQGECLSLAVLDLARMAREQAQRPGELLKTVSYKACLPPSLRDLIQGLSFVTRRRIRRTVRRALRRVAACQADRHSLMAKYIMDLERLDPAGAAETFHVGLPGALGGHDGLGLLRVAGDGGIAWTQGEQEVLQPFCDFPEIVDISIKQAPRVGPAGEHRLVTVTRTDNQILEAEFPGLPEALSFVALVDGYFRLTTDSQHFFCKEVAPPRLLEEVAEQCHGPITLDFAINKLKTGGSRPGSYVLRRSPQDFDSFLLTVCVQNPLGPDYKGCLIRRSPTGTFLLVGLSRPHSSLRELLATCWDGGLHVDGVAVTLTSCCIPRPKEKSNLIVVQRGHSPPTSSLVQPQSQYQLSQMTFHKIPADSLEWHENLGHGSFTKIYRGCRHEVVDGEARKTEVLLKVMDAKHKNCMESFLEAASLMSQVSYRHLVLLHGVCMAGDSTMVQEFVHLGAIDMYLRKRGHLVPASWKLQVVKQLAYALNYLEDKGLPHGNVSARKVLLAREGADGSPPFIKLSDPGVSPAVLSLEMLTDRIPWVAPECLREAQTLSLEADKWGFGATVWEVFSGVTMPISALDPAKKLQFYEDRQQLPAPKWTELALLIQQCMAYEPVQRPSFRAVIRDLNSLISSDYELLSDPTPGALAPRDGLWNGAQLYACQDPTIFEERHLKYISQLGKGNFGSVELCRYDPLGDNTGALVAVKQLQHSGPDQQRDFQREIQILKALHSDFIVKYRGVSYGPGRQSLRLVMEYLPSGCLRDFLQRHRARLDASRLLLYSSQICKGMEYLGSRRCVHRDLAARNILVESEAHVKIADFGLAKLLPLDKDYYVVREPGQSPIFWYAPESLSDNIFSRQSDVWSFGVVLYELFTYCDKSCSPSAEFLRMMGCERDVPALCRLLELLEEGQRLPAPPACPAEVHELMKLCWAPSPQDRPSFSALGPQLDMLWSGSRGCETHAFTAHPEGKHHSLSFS
The data set can be described thus: JAK Family Selectivity Assay: JAK3 vs JAK2 binding affinity. The settings on record: Kd JAK3 over Kd JAK2. The protocol:
as §1

The target in a further data set is T4, Tyk2 (Homo sapiens, UniProt P29597).
T4 construct: made in house; host or cells: T7 phage in BL21-derived E. coli or HEK-293 cells
T4 sequence (P29597 whole entry): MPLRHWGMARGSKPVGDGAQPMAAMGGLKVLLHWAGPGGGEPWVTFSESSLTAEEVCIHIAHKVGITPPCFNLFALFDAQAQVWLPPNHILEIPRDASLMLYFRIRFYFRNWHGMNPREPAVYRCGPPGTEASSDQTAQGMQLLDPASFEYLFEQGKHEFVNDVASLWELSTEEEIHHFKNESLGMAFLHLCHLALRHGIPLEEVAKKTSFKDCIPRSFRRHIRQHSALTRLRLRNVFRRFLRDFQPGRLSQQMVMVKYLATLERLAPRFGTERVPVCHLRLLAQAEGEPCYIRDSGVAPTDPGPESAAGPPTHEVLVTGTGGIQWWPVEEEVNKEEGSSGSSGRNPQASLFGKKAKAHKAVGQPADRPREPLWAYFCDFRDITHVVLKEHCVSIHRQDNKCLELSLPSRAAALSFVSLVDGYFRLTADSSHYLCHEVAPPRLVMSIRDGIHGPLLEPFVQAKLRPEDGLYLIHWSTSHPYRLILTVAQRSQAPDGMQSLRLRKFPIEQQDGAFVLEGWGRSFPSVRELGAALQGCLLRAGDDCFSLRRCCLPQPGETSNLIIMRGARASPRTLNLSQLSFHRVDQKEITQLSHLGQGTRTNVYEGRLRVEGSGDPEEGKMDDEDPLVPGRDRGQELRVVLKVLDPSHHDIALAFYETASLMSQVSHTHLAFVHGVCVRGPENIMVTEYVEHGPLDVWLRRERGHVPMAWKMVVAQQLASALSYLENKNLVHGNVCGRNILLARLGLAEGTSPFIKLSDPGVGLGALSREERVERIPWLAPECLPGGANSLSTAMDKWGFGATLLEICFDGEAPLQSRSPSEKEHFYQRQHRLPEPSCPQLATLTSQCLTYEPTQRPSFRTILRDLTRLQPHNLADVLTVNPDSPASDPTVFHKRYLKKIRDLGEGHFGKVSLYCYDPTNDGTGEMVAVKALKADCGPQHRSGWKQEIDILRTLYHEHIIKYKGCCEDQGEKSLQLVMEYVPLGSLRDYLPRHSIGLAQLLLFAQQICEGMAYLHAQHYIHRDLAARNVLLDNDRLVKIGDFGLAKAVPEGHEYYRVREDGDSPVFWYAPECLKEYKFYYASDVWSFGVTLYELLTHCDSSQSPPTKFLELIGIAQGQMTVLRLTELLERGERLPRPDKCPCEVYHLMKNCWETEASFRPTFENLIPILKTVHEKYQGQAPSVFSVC
As to the kind of experiment: JAK Family Selectivity Assay: Tyk2 vs JAK2 binding affinity. To be noted: Kd TYK2 over Kd JAK2. Here is the method:
as §1

T1 sequence (P23458 whole entry): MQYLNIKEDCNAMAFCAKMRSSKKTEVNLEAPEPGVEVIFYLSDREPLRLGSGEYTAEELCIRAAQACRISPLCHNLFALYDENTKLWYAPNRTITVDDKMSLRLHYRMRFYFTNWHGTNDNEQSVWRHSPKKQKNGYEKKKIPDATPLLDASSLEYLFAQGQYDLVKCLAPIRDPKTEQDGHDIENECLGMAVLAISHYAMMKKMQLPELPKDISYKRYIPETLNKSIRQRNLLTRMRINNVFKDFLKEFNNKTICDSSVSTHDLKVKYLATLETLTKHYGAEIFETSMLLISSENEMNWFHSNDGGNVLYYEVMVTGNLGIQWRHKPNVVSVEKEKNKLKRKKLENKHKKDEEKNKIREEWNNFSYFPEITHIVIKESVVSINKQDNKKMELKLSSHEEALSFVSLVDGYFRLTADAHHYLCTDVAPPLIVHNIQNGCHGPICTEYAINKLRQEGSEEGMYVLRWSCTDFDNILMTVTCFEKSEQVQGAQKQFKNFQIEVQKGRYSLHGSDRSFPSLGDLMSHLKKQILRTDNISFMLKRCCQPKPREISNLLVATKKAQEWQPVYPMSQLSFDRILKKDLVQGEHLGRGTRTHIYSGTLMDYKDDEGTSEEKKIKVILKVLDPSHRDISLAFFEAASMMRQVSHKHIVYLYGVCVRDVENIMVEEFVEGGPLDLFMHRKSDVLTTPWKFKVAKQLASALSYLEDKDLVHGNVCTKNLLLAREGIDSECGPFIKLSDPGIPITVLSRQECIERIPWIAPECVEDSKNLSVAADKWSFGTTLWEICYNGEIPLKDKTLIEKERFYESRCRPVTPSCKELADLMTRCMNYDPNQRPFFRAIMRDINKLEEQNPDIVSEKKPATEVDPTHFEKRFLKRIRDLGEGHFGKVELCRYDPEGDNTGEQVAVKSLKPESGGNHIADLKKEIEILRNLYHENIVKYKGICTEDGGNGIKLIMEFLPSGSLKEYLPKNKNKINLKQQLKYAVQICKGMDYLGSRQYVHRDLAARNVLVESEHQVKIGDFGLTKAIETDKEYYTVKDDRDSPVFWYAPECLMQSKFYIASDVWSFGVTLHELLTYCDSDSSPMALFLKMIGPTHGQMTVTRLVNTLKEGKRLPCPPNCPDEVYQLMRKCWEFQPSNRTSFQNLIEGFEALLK

For orientation: Kd means a measure of binding affinity in units of concentration. One may read the solubility as the dissolved amount per volume that the medium holds. High values mean a readily soluble substance, low ones a poorly soluble substance. With `COC(=O)Nc1cc(Oc2cnc3nc(Nc4cc(C(F)(F)F)cn(C)c4=O)n(C)c3c2C#N)ccn1` [Example I-3, Methyl (4-((7-cyano-1-methyl-2-((1-methyl-2-oxo-5-(trifluoromethyl)-1,2-dihydropyridin-3-yl)amino)-1H-imidazo[4,5-b]pyridin-6-yl)oxy)pyridin-2-yl)carbamate], the “JAK1/JAK2 Kd/Kd ratio” value at JAK1 is on record as “A (Kd/Kd ratio ≥1000)”. Also, the Kd in data set [1] is < 10 nM. The compound also returned a solubility at 2 h in the data set “Kinetic Solubility Assay” of 0.1 to 9 µM (≈ 0.0514 to 4.63 µg/mL). Further, the “JAK3/JAK2 Kd/Kd ratio” value on JAK3 is listed as “A (Kd/Kd ratio ≥1000)”. The “TYK2/JAK2 Kd/Kd ratio” value at Tyk2 was “C (Kd/Kd ratio <300 and ≥100)”.
Take `CN(C)C(=O)Nc1cc(Oc2cnc3nc(Nc4cc(C(F)(F)F)cn(C)c4=O)n(C)c3c2C#N)ccn1` [Example I-4, 3-(4-((7-cyano-1-methyl-2-((1-methyl-2-oxo-5-(trifluoromethyl)-1,2-dihydropyridin-3-yl)amino)-1H-imidazo[4,5-b]pyridin-6-yl)oxy)pyridin-2-yl)-1,1-dimethylurea]: the “JAK1/JAK2 Kd/Kd ratio” value at JAK1 is “B (Kd/Kd ratio <1000 and ≥300)”. For the same compound, the dissociation constant (Kd) in data set [1] is < 10 nM. Moreover, the solubility at 2 h in “Kinetic Solubility Assay” lay within 9 to 100 µM (≈ 4.75 to 52.7 µg/mL). For the same compound, at JAK3, the “JAK3/JAK2 Kd/Kd ratio” value is reported as “A (Kd/Kd ratio ≥1000)”. On Tyk2, the “TYK2/JAK2 Kd/Kd ratio” value was “C (Kd/Kd ratio <300 and ≥100)”.
With `Cn1cc(C(F)(F)F)cc(Nc2nc3ncc(Oc4ccnc(NC(=O)N5CCC5)c4)c(C#N)c3n2C)c1=O` [Example I-7, N-(4-((7-cyano-1-methyl-2-((1-methyl-2-oxo-5-(trifluoromethyl)-1,2-dihydropyridin-3-yl)amino)-1H-imidazo[4,5-b]pyridin-6-yl)oxy)pyridin-2-yl)azetidine-1-carboxamide], on JAK1, the “JAK1/JAK2 Kd/Kd ratio” value was “A (Kd/Kd ratio ≥1000)”. Besides, in data set [1], the equilibrium dissociation constant (Kd) is < 10 nM. The compound also displayed a solubility at 2 h in “Kinetic Solubility Assay” of 0.1 to 9 µM (≈ 0.0539 to 4.86 µg/mL). Further, on JAK3, the “JAK3/JAK2 Kd/Kd ratio” value is “A (Kd/Kd ratio ≥1000)”. Also, the “TYK2/JAK2 Kd/Kd ratio” value at Tyk2 is “D (Kd/Kd ratio <100)”.
For the compound `CO[C@H]1CCN(C(=O)Nc2cc(Oc3cnc4nc(Nc5cc(C(F)(F)F)cn(C)c5=O)n(C)c4c3C#N)ccn2)C1` [Example I-14, (S)-N-(4-((7-cyano-1-methyl-2-((1-methyl-2-oxo-5-(trifluoromethyl)-1,2-dihydropyridin-3-yl)amino)-1H-imidazo[4,5-b]pyridin-6-yl)oxy)pyridin-2-yl)-3-methoxypyrrolidine-1-carboxamide], the “JAK1/JAK2 Kd/Kd ratio” value at JAK1 is “A (Kd/Kd ratio ≥1000)”. Further, the Kd in data set [1] was < 10 nM. Moreover, in “Kinetic Solubility Assay”, the solubility at 2 h lay within 0.1 to 9 µM (≈ 0.0584 to 5.25 µg/mL). Also, at JAK3, the “JAK3/JAK2 Kd/Kd ratio” value is on record as “A (Kd/Kd ratio ≥1000)”. In addition, the “TYK2/JAK2 Kd/Kd ratio” value on Tyk2 is “C (Kd/Kd ratio <300 and ≥100)”.
For the compound `COC1CN(C(=O)Nc2cc(Oc3cnc4nc(Nc5cc6n(n5)CCCC6(F)F)n(C)c4c3C#N)ccn2)C1` [Example I-26, N-(4-((7-cyano-2-((4,4-difluoro-4,5,6,7-tetrahydropyrazolo[1,5-a]pyridin-2-yl)amino)-1-methyl-1H-imidazo[4,5-b]pyridin-6-yl)oxy)pyridin-2-yl)-3-methoxyazetidine-1-carboxamide], the dissociation constant (Kd) in data set [1] was < 10 nM. For the same compound, the solubility at 2 h in “Kinetic Solubility Assay” was in the range of 9 to 100 µM (≈ 4.95 to 55.1 µg/mL).
In the same order, the values of `Cn1c(Nc2cc3n(n2)CCOC3(C)C)nc2ncc(Oc3ccnc(NC(=O)O[C@@H]4CCOC4)c3)c(C#N)c21` [Example I-48, (R)-Tetrahydrofuran-3-yl(4-((7-cyano-2-((4,4-dimethyl-6,7-dihydro-4H-pyrazolo[5,1-c][1,4]oxazin-2-yl)amino)-1-methyl-1H-imidazo[4,5-b]pyridin-6-yl)oxy)pyridin-2-yl)carbamate] are < 10 nM and 0.1 to 9 µM (≈ 0.0546 to 4.91 µg/mL).
Turning to `CN(C)C(=O)Nc1cc(Oc2cnc3nc(Nc4cc5n(n4)CCC54CCC4)n(C)c3c2C#N)ccn1` [Example I-56, 3-(4-((7-cyano-2-((5′,6′-dihydrospiro[cyclobutane-1,4′-pyrrolo[1,2-b]pyrazol]-2′-yl)amino)-1-methyl-1H-imidazo[4,5-b]pyridin-6-yl)oxy)pyridin-2-yl)-1,1-dimethylurea], in data set [1], the dissociation constant (Kd) is < 10 nM. The solubility at 2 h in “Kinetic Solubility Assay” lay in the range of 9 to 100 µM (≈ 4.49 to 49.9 µg/mL).
On the same counts, the results for `COC(=O)Nc1cc(Oc2cnc3nc(Nc4cc5n(n4)CCC54CCC4)n(C)c3c2C#N)ccn1` [Example I-57, methyl(4-((7-cyano-2-((5′,6′-dihydrospiro[cyclobutane-1,4′-pyrrolo[1,2-b]pyrazol]-2′-yl)amino)-1-methyl-1H-imidazo[4,5-b]pyridin-6-yl)oxy)pyridin-2-yl)carbamate] are < 10 nM and 0.1 to 9 µM (≈ 0.0486 to 4.37 µg/mL).
In the same order, the values of `CC(=O)Nc1cc(Oc2cnc3nc(Nc4cc5n(n4)CCCC54CC4)n(C)c3c2C#N)ccn1` [Example I-114, N-(4-((7-cyano-2-((6′,7′-dihydro-5′H-spiro[cyclopropane-1,4′-pyrazolo[1,5-a]pyridin]-2′-yl)amino)-1-methyl-1H-imidazo[4,5-b]pyridin-6-yl)oxy)pyridin-2-yl)acetamide] are < 10 nM and 9 to 100 µM (≈ 4.23 to 47 µg/mL).
Consider `CC(=O)Nc1cc(Oc2cnc3nc(Nc4cc5n(n4)CCOCC5(C)C)n(C)c3c2C#N)ccn1` [Example I-118, N-(4-((7-cyano-2-((4,4-dimethyl-4,5,7,8-tetrahydropyrazolo[1,5-d][1,4]oxazepin-2-yl)amino)-1-methyl-1H-imidazo[4,5-b]pyridin-6-yl)oxy)pyridin-2-yl)acetamide], for which the Kd in data set [1] was < 10 nM. This compound also had a solubility at 2 h in “Kinetic Solubility Assay” of 9 to 100 µM (≈ 4.39 to 48.8 µg/mL).
